Here are results for four compounds from PMC8477953, “Carnitine is a pharmacological allosteric chaperone of the human lysosomal α-glucosidase” (Journal of Enzyme Inhibition and Medicinal Chemistry, 2021).

A word on the Kd: it is a measure of binding affinity in units of concentration. High values mean lower affinity, low ones higher affinity.

Common to all, as to type: binding
For experiment [1], the target named is T1, lysosomal acid α-glucosidase (rhGAA) (Homo sapiens, UniProt P10253).
T1 construct: gene GAA; recombinant human GAA (Myozyme)
Description: DSF thermal shift, dose-dependent; rescue of rhGAA activity at pH […]. To be noted: read-out: delta_Tm.

For experiment [2], the target named is T1, lysosomal acid α-glucosidase (rhGAA). Description: DSF thermal shift at […], pH […]. To be noted: read-out: delta_Tm.
The target is the same in experiment [3]. Description: DSF (SYPRO Orange) titration at pH […] with Kd from cooperative model fit.
For experiment [4] the target is unchanged. As to the kind of experiment: DSF thermal shift at […], pH […]. To be noted: read-out: delta_Tm. The source holds these as a separate data set.

In the case of `C[N+](C)(C)C[C@@H](O)CC(=O)[O-]` [compound 7, D-carnitine], the ΔTm at 5000 µM in experiment [1] is 4.9 ± 0.1 °C.

In the case of `OC[C@H]1NC[C@H](O)[C@@H](O)[C@@H]1O` [compound 1, DNJ], the ΔTm at 100 µM in experiment [2] is 12.1 °C.

`C[N+](C)(C)C[C@H](O)CC(=O)[O-]` [compound 6, L-carnitine] registered an equilibrium dissociation constant (Kd) in experiment [3] of 9.16 ± 1.02 mM. With `CC(=O)N[C@@H](CS)C(=O)O` [compound 3, N-acetylcysteine], in experiment [4], the ΔTm at 10000 µM amounted to 9.6 ± 0.2 °C.
